In patent US12396459B2, “Synergistically effective herbicide composition comprising pyridate and at least one defined 4-HPPD inhibitor” (BELCHIM CROP PROTECTION NV, priority 2018, dated 2025):

How the values were obtained:
Assay type in all cases: in vivo
[1] = test system: Viola arvensis; test: Field trial post-emergence in maize: VIOAR
Procedure: (§1) Herbicidal activity of herbicide compositions according to the first aspect of the present invention with regard to different types of unwanted vegetation was determined during trials performed on test fields (field trials). Individual compositions comprising pyridate and individual compositions comprising a defined 4-HPPD inhibitor are compared with a herbicide composition according to the invention comprising both pyridate and a defined 4-HPPD inhibitor. The expected activity of the combination of the active compounds pyridate and a defined 4-HPPD inhibitor is calculated according to above mentioned calculation method by Colby, in order to evaluate a synergistic effect between pyridate and a defined 4-HPPD inhibitor.
(§2) Herbicidal activity was determined by applying herbicide compositions on emerged unwanted vegetation on fields where maize was cultivated. Pyridate and a defined 4-HPPD inhibitor were applied as a tank mixture by mixing these active compounds prior to use in a spray tank. The corresponding mixture was in the form of a spray liquor. Besides, spray liquors of individual compositions comprising pyridate and of individual compositions comprising a defined 4-HPPD inhibitor were used. Test plants of unwanted vegetation with a growth stage corresponding to BBCH 10-18 (according to the extended BBCH-scale) were sprayed with the active compound preparations such that particular desired amounts of active compounds are applied per unit area. Spray liquor was diluted with water to arrive at an application volume of 50 to 450 L/ha. At a specified number of days after application (DAA), the degree of damage to the unwanted vegetation is rated in % of plants of unwanted vegetation that were killed, which was assessed by visually controlling the plants.
(§3) Example 1 concerns a herbicide composition comprising a combination of pyridate and mesotrione, which was applied post-emergence on unwanted vegetation on a field where maize was cultivated, according to the test conditions mentioned above.

[2] = test system: Sonchus oleraceus; test: Field trial post-emergence in maize: SONOL; conditions: # = 1, g a.c./ha: PYR 300, MES 100, PYR + MES 300 + 90
Procedure: as §1, §2

[3] = test system: Galinsoga parviflora; test: Field trial post-emergence in maize: GASPA; conditions: 31-48 DAA; # = 3; g a.c./ha: PYR 300, MES 100, PYR + MES 300 + 90
Procedure: as §1
(§4) Herbicidal activity was determined by applying herbicide compositions on emerged unwanted vegetation on fields where maize was cultivated. Pyridate and a defined 4-HPPD inhibitor were applied as a tank mixture by mixing these active compounds prior to use in a spray tank. The corresponding mixture was in the form of a spray liquor. […] At a specified number of days after application (DAA), the degree of damage to the unwanted vegetation is rated in % of plants of unwanted vegetation that were killed, which was assessed by visually controlling the plants.

[4] = test system: Echinochloa crus-galli; test: Examples 6-8 herbicidal effect: ECHCG; conditions: 7 DAA
[5] = test system: Veronica persica; test: Field trial post-emergence in maize: VERPE; conditions: for herbicidal effect (h.e.): g a.c./ha: PYR 300, MES 100, PYR + MES 300 + 90
Procedure: as §1, §2

[6] = test system: Stellaria media; test: Field trial post-emergence in maize: STEME
Procedure: as §1, §2

[7] = test system: Geranium sp.; test: Field trial post-emergence in maize: GERSS; conditions: # = 1, g a.c./ha: PYR 300, MES 100, PYR + MES 300 + 90
Procedure: as §1, §2

[8] = test system: Cirsium arvense; test: Field trial post-emergence in maize: CIRAR; conditions: # = 1, g a.c./ha: PYR 300, MES 100, PYR + MES 300 + 90
Procedure: as §1, §2

[9] = test system: Lamium purpureum; test: Field trial post-emergence in maize: LAMPU
Procedure: as §1, §2, §3

[10] = test system: Polygonum aviculare; test: Field trial post-emergence in maize: POLAV
Procedure: as §1, §2, §3

[11] = test system: Anagallis arvensis; test: Field trial post-emergence in maize: ANGAR; conditions: 7-14 DAA; # = 2; g a.c./ha: PYR 300, MES 100, PYR + MES 300 + 90
Procedure: as §1, §4

[12] = test system: Rumex obtusifolius; test: Field trial post-emergence in maize: RUMOB
Procedure: as §1, §2, §3

[13] = test system: Solanum nigrum; test: Field trial post-emergence in maize: SOLNI; conditions: for herbicidal effect (h.e.): g a.c./ha: PYR 300, MES 100, PYR + MES 300 + 90
Procedure: as §1, §2

[14] = test system: Digitaria sanguinalis; test: Examples 6-8 herbicidal effect: DIGSA; conditions: 7 DAA
[15] = test system: unwanted vegetation (UVEG); test: Field trials Examples 1-5 (incl. Table 1), post-emergence on unwanted vegetation in maize; conditions: 14-20 DAA
Procedure: as §1, §2

[16] = test system: Thlaspi arvense; test: Field trial post-emergence in maize: THLAR; conditions: # = 1, g a.c./ha: PYR 300, MES 100, PYR + MES 300 + 90
Procedure: as §1, §2

[17] = test system: Abutilon theophrasti; test: Field trial post-emergence in maize: ABUTH; conditions: 31-48 DAA; # = 2; g a.c./ha: PYR 300, MES 100, PYR + MES 300 + 90
Procedure: as §1, §4

[18] = test system: Tripleurospermum inodorum; test: Field trial post-emergence in maize: MATIN; conditions: for herbicidal effect (h.e.): # = 1, g a.c./ha: PYR 300, MES 100, PYR + MES 300 + 90
Procedure: as §1, §2

[19] = g a.c./ha: PYR 10, TEM 22, PYR + TEM 10 + 100
[20] = g a.c./ha: PYR 300, PYR + MES 300 + 80
[21] = g a.c./ha: PYR 300, SCT 300, PYR + SCT 300 + 300
[22] = g a.c./ha: PYR 300, TEM 100, PYR + TEM 300 + 100
[23] = g a.c./ha: PYR 450, SCT 450, PYR + SCT 300 + 450
[24] = g a.c./ha: PYR 600, PYR + SCT 600 + 300
[25] = g a.c./ha: PYR 900, TEM 44, PYR + TEM 900 + 44

Compound: CCCCCCCCSC(=O)Oc1cc(Cl)nnc1-c1ccccc1 [PYR, (6-chloro-3-phenylpyridazin-4-yl) octylsulfanylformate]
- PYR h.e. ([1]; VIOAR 14-20 DAA 300 g a.c./ha): 31%
- PYR h.e. ([1]; VIOAR 14-20 DAA 600 g a.c./ha): 34%
- PYR h.e. ([1]; VIOAR 14-20 DAA 900 g a.c./ha): 50%
- herbicidal effect (h.e.) ([2]; 7-14 DAA): 93%
- herbicidal effect (h.e.) ([2]; 18-28 DAA): 51%
- herbicidal effect (h.e.) ([2]; 31-48 DAA): 37%
- herbicidal effect (h.e.) [3]: 40%
- herbicidal effect (h.e.) [4, 19]: 0%
- herbicidal effect (h.e.) [4, 20]: 0%
- herbicidal effect (h.e.) [4, 21]: 0%
- herbicidal effect (h.e.) [4, 22]: 0%
- herbicidal effect (h.e.) [4, 23]: 0%
- herbicidal effect (h.e.) [4, 24]: 0%
- herbicidal effect (h.e.) [4, 25]: 5%
- herbicidal effect (h.e.) ([5]; 7-14 DAA, # = 4): 58%
- herbicidal effect (h.e.) ([5]; 31-48 DAA, # = 5): 44%
- PYR h.e. ([5]; VERPE 14-20 DAA 300 g a.c./ha): 0%
- PYR h.e. ([5]; VERPE 14-20 DAA 600 g a.c./ha): 20%
- PYR h.e. ([5]; VERPE 14-20 DAA 900 g a.c./ha): 40%
- PYR h.e. ([5]; VERPE 24-31 DAA 300 g a.c./ha): 10%
- PYR h.e. ([5]; VERPE 24-31 DAA 600 g a.c./ha): 0%
- PYR h.e. ([5]; VERPE 24-31 DAA 900 g a.c./ha): 0%
- herbicidal effect (h.e.) ([6]; 18-28 DAA, # = 4, g a.c./ha: PYR 300, MES 100, PYR + MES 300 + 90): 35%
- PYR h.e. ([6]; STEME 14-20 DAA 300 g a.c./ha): 18%
- PYR h.e. ([6]; STEME 14-20 DAA 600 g a.c./ha): 42%
- PYR h.e. ([6]; STEME 14-20 DAA 900 g a.c./ha): 55%
- PYR h.e. ([6]; STEME 24-31 DAA 300 g a.c./ha): 16%
- PYR h.e. ([6]; STEME 24-31 DAA 600 g a.c./ha): 30%
- PYR h.e. ([6]; STEME 24-31 DAA 900 g a.c./ha): 50%
- herbicidal effect (h.e.) ([7]; 7-14 DAA): 13%
- herbicidal effect (h.e.) ([7]; 18-28 DAA): 0%
- herbicidal effect (h.e.) ([7]; 31-48 DAA): 0%
- herbicidal effect (h.e.) ([8]; 7-14 DAA): 23%
- herbicidal effect (h.e.) ([8]; 31-48 DAA): 49%
- PYR h.e. ([9]; LAMPU 14-20 DAA 300 g a.c./ha): 28%
- PYR h.e. ([9]; LAMPU 14-20 DAA 600 g a.c./ha): 60%
- PYR h.e. ([9]; LAMPU 14-20 DAA 900 g a.c./ha): 65%
- PYR h.e. ([9]; LAMPU 24-31 DAA 300 g a.c./ha): 14%
- PYR h.e. ([9]; LAMPU 24-31 DAA 600 g a.c./ha): 46%
- PYR h.e. ([9]; LAMPU 24-31 DAA 900 g a.c./ha): 67%
- PYR h.e. ([10]; POLAV 14-20 DAA 300 g a.c./ha): 18%
- PYR h.e. ([10]; POLAV 24-31 DAA 300 g a.c./ha): 17%
- herbicidal effect (h.e.) [11]: 6%
- PYR h.e. ([12]; RUMOB 14-20 DAA 300 g a.c./ha): 20%
- PYR h.e. ([12]; RUMOB 14-20 DAA 600 g a.c./ha): 30%
- PYR h.e. ([12]; RUMOB 14-20 DAA 900 g a.c./ha): 55%
- herbicidal effect (h.e.) ([13]; 18-28 DAA, # = 7): 58%
- herbicidal effect (h.e.) ([13]; 31-48 DAA, # = 6): 55%
- PYR h.e. ([13]; SOLNI 14-20 DAA 300 g a.c./ha): 75%
- PYR h.e. ([13]; SOLNI 14-20 DAA 600 g a.c./ha): 88%
- herbicidal effect (h.e.) [14, 19]: 0%
- herbicidal effect (h.e.) [14, 20]: 0%
- herbicidal effect (h.e.) [14, 21]: 0%
- herbicidal effect (h.e.) [14, 22]: 5%
- herbicidal effect (h.e.) [14, 23]: 0%
- herbicidal effect (h.e.) [14, 24]: 5%
- herbicidal effect (h.e.) [14, 25]: 0%
- PYR h.e. (%) ([15]; VIOAR (Viola arvensis), # = 3, first VIOAR block (r259-264), PYR 900 g a.c./ha): 50%
- PYR h.e. (%) ([15]; VIOAR (Viola arvensis), # = 3, second VIOAR block (r265-272), PYR 300 g a.c./ha): 27%
- PYR h.e. (%) ([15]; VIOAR, # = 3, second VIOAR block (r265-272), PYR 600 g a.c./ha): 34%
- PYR h.e. (%) ([15]; VIOAR, # = 3, second VIOAR block (r265-272), PYR 900 g a.c./ha): 47%
- herbicidal effect (h.e.) ([16]; 7-14 DAA): 28%
- herbicidal effect (h.e.) ([16]; 18-28 DAA): 19%
- herbicidal effect (h.e.) [17]: 73%
- herbicidal effect (h.e.) ([18]; 7-14 DAA): 3%
- herbicidal effect (h.e.) ([18]; 18-28 DAA): 5%
- herbicidal effect (h.e.) ([18]; 31-48 DAA): 5%
- PYR h.e. ([18]; MATIN 24-31 DAA 300 g a.c./ha): 75%
- PYR h.e. ([18]; MATIN 24-31 DAA 600 g a.c./ha): 60%
- PYR h.e. ([18]; MATIN 24-31 DAA 900 g a.c./ha): 55%
